Data taken from patent US7943628B2, “Pyrimidine derivatives” (Pfizer Limited, priority 2005, dated 2011).

target: T1, histamine H4 receptor (Homo sapiens, UniProt Q9H3N8); assay: H4 binding, method 2 ([3H]-histamine binding with Ysi WGA beads on CHO cell membranes); settings: H4 binding, method 2; Ki calculated from IC50 (Cheng-Prussoff); read-out: Method 2 (Ki (nM))
T1 construct: expressed in transfected cells; host or cells: CHO cells
Experimental: Cell pellets from CHO cells expressing the histamine H4 receptor were homogenised in ice-cold 50 mM Tris-HCl/0.5 mM CaCl2 buffer containing a protease inhibitor cocktail (Roche®, United Kingdom) using a ground glass homogeniser. Homogenates were centrifuged at 48000 g for 30 min at 4° C. The membrane pellet was resuspended in fresh buffer and the centrifugation step was repeated as described above. The membrane pellet was resuspended in 50 mM Tris-HCl in the same volume as the original cell pellet. Aliquots of membrane preparations were stored at −80° C. and were used for [^3H]-Histamine binding experiments.
Cell membranes (15 μg/well) were pre-incubated for 120 min shaking at 4° C. with Ysi WGA beads (250 μg/well) in 50 mM Tris-HCl (pH 7.4) followed by centrifugation at 1500 rpm for 5 minutes and resuspension in 50 mM Tris-HCl (pH 7.4). The membrane/bead mixture (15 μg membrane/250 μg beads well) was incubated for 90 minutes shaking at room temperature with 6.5 nM [2,5-^3H] Histamine dihydrochloride (30-60 Ci/mmol) in 50 mM Tris-HCl (pH 7.4), with or without competing H4 ligands. Non-specific binding was defined with 10 μM JNJ7777120. Bound radiolabel was determined using scintillation counting techniques after 90 minutes.

T1 sequence (Q9H3N8 whole entry): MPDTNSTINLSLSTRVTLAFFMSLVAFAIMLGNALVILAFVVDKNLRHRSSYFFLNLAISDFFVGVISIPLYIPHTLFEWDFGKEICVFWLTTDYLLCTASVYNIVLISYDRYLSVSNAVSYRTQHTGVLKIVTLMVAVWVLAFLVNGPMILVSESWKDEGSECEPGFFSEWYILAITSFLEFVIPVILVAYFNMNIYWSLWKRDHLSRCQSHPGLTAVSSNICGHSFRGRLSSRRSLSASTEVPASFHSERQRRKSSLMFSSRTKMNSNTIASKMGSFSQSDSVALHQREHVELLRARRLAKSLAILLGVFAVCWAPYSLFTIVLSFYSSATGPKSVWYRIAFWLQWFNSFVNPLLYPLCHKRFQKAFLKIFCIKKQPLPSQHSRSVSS

Question: Which Ki does the source give for `CNC1CN(c2cc(NCc3cccc(C)c3)nc(N)n2)C1` [Example 83, 6-[3-(Methylamino)azetidin-1-yl]-N^4-(3-methylbenzyl)pyrimidine-2,4-diamine] here?
Answer: Its Ki is 62.3 nM.

Question: With `CNC1CN(c2cc(NCc3ccccc3C(F)(F)F)nc(N)n2)C1` [Example 84, 6-[3-(Methylamino)azetidin-1-yl]-N^4-[2-(trifluoromethyl)benzyl]pyrimidine-2,4-diamine] as the compound, how does the Ki read?
Answer: Its Ki is 21.7 nM.

Question: For `CNC1CN(c2cc(NCc3ccc(C(F)(F)F)cc3)nc(N)n2)C1` [Example 85, 6-[3-(Methylamino)azetidin-1-yl]-N^4-[4-(trifluoromethyl)benzyl]pyrimidine-2,4-diamine], which Ki is on record?
Answer: Its Ki is 156 nM.

Question: How did the Ki turn out when `CNC1CN(c2cc(NCc3cccc(Cl)c3)nc(N)n2)C1` [Example 86, N^4-(3-Chlorobenzyl)-6-[3-(methylamino)azetidin-1-yl]pyrimidine-2,4-diamine] was run?
Answer: The Ki was 142 nM.

Question: With `CNC1CN(c2cc(NCc3ccccc3OC)nc(N)n2)C1` [Example 87, N^4-(2-Methoxybenzyl)-6-[3-(methylamino)azetidin-1-yl]pyrimidine-2,4-diamine] as the compound, how does the Ki read?
Answer: The Ki was 17.4 nM.

Question: Which Ki does the source give for `CNC1CN(c2cc(NCc3ccc(C)cc3)nc(N)n2)C1` [Example 88, 6-[3-(Methylamino)azetidin-1-yl]-N^4-(4-methylbenzyl)pyrimidine-2,4-diamine] here?
Answer: Its Ki is 35.8 nM.

Question: How did the Ki turn out when `CNC1CN(c2cc(NCc3ccccc3Cl)nc(N)n2)C1` [Example 89, N^4-(2-Chlorobenzyl)-6-[3-(methylamino)azetidin-1-yl]pyrimidine-2,4-diamine] was run?
Answer: Its Ki is 1.93 nM.

Question: With `CNC1CN(c2cc(NCc3ccc(F)cc3)nc(N)n2)C1` [Example 90, N^4-(4-Fluorobenzyl)-6-[3-(methylamino)azetidin-1-yl]pyrimidine-2,4-diamine] as the compound, how does the Ki read?
Answer: The Ki was 6.42 nM.

Question: For `CN1CCN(c2cc(NCc3cccc(F)c3)nc(N)n2)CC1` [Example 91, N^4-(3-Fluorobenzyl)-6-(4-methylpiperazin-1-yl)pyrimidine-2,4-diamine], which Ki is on record?
Answer: The Ki was 386 nM.

Question: How did the Ki turn out when `CN1C[C@@H]2CN(c3cc(NCc4cccc(F)c4)nc(N)n3)C[C@@H]2C1` [Example 92, N^4-(3-Fluorobenzyl)-6-[(3aR*,6aS*)-5-methylhexahydropyrrolo [3,4-c]pyrrol-2(1H)-yl]pyrimidine-2,4-diamine] was run?
Answer: Its Ki is 1350 nM.

Question: How did the Ki turn out when `C[C@@H]1CN(c2cc(NCCC(C)(C)C)nc(N)n2)CCN1` [Example 93, N^4-(3,3-Dimethylbutyl)-6-[(3R)-3-methylpiperazin-1-yl]pyrimidine-2,4-diamine] was run?
Answer: The Ki was 256 nM.

Question: `C[C@H]1CN(c2cc(NCCC(C)(C)C)nc(N)n2)CCN1` [Example 94, N^4-(3,3-Dimethylbutyl)-6-[(3S)-3-methylpiperazin-1-yl]pyrimidine-2,4-diamine] was tested. Which Ki did it give?
Answer: Its Ki is 61.1 nM.

Question: `C[C@@H]1CN(c2cc(NCC(C)(C)C)nc(N)n2)CCN1` [Example 95, N^4-(2,2-Dimethylpropyl)-6-[(3R)-3-methylpiperazin-1-yl]pyrimidine-2,4-diamine] was tested. Which Ki did it give?
Answer: Its Ki is 9.11 nM.

Question: `C[C@H]1CN(c2cc(NCC(C)(C)C)nc(N)n2)CCN1` [Example 96, N^4-(2,2-Dimethylpropyl)-6-[(3S)-3-methylpiperazin-1-yl]pyrimidine-2,4-diamine] was tested. Which Ki did it give?
Answer: Its Ki is 3.77 nM.

Question: With `CC(C)CCNc1cc(N2CCN(C)CC2)nc(N)n1` [Example 108, N^4-(3-Methylbutyl)-6-(4-methylpiperazin-1-yl)pyrimidine-2,4-diamine] as the compound, how does the Ki read?
Answer: Its Ki is 8.42 nM.

Question: Which Ki does the source give for `CN[C@@H]1CCN(c2cc(NCCC(C)(C)C)ncn2)C1` [Example 109, N-(3,3-Dimethylbutyl)-6-[(3R)-3-(methylamino)pyrrolidin-1-yl]pyrimidin-4-amine] here?
Answer: The Ki was 42.7 nM.

Question: How did the Ki turn out when `COCCNc1cc(N2CCN(C)CC2)ncn1` [Example 110, N-(2-Methoxyethyl)-6-(4-methylpiperazin-1-yl)pyrimidin-4-amine] was run?
Answer: The Ki was 829 nM.

Question: How did the Ki turn out when `CN1CCN(c2cc(NC[C@@H]3CCCO3)ncn2)CC1` [Example 112, 6-(4-Methylpiperazin-1-yl)-N-[(2S)-tetrahydrofuran-2-ylmethyl]pyrimidin-4-amine] was run?
Answer: Its Ki is 635 nM.

Question: `CN1CCN(c2cc(NC[C@H]3CCCO3)ncn2)CC1` [Example 113, 6-(4-Methylpiperazin-1-yl)-N-[(2R)-tetrahydrofuran-2-ylmethyl]pyrimidin-4-amine] was tested. Which Ki did it give?
Answer: The Ki was 1480 nM.

Question: Which Ki does the source give for `CN1CCN(c2cc(N3CCCC3)ncn2)CC1` [Example 114, 4-(4-Methylpiperazin-1-yl)-6-pyrrolidin-1-ylpyrimidine] here?
Answer: Its Ki is 1030 nM.

Question: Which Ki does the source give for `CN1CCN(c2cc(NCCC(F)(F)F)ncn2)CC1` [Example 115, 6-(4-Methylpiperazin-1-yl)-N-(3,3,3-trifluoropropyl)pyrimidin-4-amine] here?
Answer: Its Ki is 494 nM.

Question: How did the Ki turn out when `Cc1c(NCC(C)C)ncnc1N1CCN(C)CC1` [Example 116, N-Isobutyl-5-methyl-6-(4-methylpiperazin-1-yl)pyrimidin-4-amine] was run?
Answer: The Ki was 426 nM.

Question: `CCNc1cc(N2C[C@H]3CN(C)C[C@H]3C2)ncn1` [Example 117, N-Ethyl-6-[(3aR*,6aS*)-5-methylhexahydropyrrolo[3,4-c]pyrrol-2(1H)-yl]pyrimidin-4-amine] was tested. Which Ki did it give?
Answer: Its Ki is 1620 nM.

Question: How did the Ki turn out when `CC(C)(C)CCNc1cc(N2CC(N)C2)ncn1` [Example 118, 6-(3-Aminoazetidin-1-yl)-N-(3,3-dimethylbutyl)pyrimidin-4-amine] was run?
Answer: Its Ki is 1090 nM.

Question: With `C[C@@H]1CN(c2cc(NCCC(C)(C)C)nc(N)n2)CCN1C` [Example 124, N^4-(3,3-Dimethylbutyl)-6-[(3R)-3,4-dimethylpiperazin-1-yl]pyrimidine-2,4-diamine] as the compound, how does the Ki read?
Answer: Its Ki is 537 nM.

Question: How did the Ki turn out when `CC(C)(C)CNc1cc(N2C[C@@H]3[C@@H](N)[C@@H]3C2)nc(N)n1` [Example 126, 6-[(1R*,5S*,6s*)-6-Amino-3-azabicyclo[3.1.0]hex-3-yl]-N^4-(2,2-dimethylpropyl)pyrimidine-2,4-diamine] was run?
Answer: Its Ki is 611 nM.

Question: How did the Ki turn out when `CC(C)(C)CNc1cc(N2CCC(N3CCCC3)C2)nc(N)n1` (stereo not shown) [Example 327, 6-[(3-S)-1,3′-Bipyrrolidin-1′-yl]-N^4-(2,2-dimethylpropyl)pyrimidine-2,4-diamine] was run?
Answer: The Ki was 376 nM.

Question: For `CC(C)CCNc1cc(N[C@@H]2CCNC2)ncn1` [Example 329, N-(3-Methylbutyl)-N′-[(3R)-pyrrolidin-3-yl]pyrimidine-4,6-diamine], which Ki is on record?
Answer: The Ki was 1420 nM.

Question: `CN1CCN(c2cc(NCCC(C)(C)C)nc(N(C)C)n2)CC1` [Example 330, N^4-(3,3-Dimethylbutyl)-N^2,N^2-dimethyl-6-(4-methylpiperazin-1-yl)pyrimidine-2,4-diamine] was tested. Which Ki did it give?
Answer: The Ki was 1440 nM.

Question: `Cc1c(NC(C)C)ncnc1N1CCN(C)CC1` [Example 331, N-isoPropyl-5-methyl-6-(4-methylpiperazin-1-yl)pyrimidin-4-amine] was tested. Which Ki did it give?
Answer: Its Ki is 2670 nM.

Question: `CC(C)(C)CCNc1cc(N2CC[C@H](N3CCCC3)C2)nc(N)n1` [Example 332, 6-[(3′S)-1,3′-Bipyrrolidin-1′-yl]-N^4-(3,3-dimethylbutyl)pyrimidine-2,4-diamine] was tested. Which Ki did it give?
Answer: Its Ki is 2690 nM.

Question: For `CC(C)(C)CCNc1cc(N2CC3C(N)C3C2)nc(N)n1` (stereo not drawn) [Example 333, 6-[(1R*,5S*,6s*)-6-Amino-3-azabicyclo[3.1.0]hex-3-yl]-N^4-(3,3-dimethylbutyl)pyrimidine-2,4-diamine], which Ki is on record?
Answer: Its Ki is 3120 nM.

Question: With `CN1CCN(c2cc(N(C)CC3CC3)ncn2)CC1` [Example 334, N-(Cyclopropylmethyl)-N-methyl-6-(4-methylpiperazin-1-yl)pyrimidin-4-amine] as the compound, how does the Ki read?
Answer: The Ki was 5070 nM.

Question: Which Ki does the source give for `COCCNc1cc(N[C@@H]2CCNC2)ncn1` [Example 335, N-(2-Methoxyethyl)-N′-[(3R)-pyrrolidin-3-yl]pyrimidine-4,6-diamine] here?
Answer: Its Ki is 5350 nM.

Question: `CNC1CN(c2cc(N3CCCC3)ncn2)C1` [Example 336, N-Methyl-1-(6-pyrrolidin-1-ylpyrimidin-4-yl)azetidin-3-amine] was tested. Which Ki did it give?
Answer: The Ki was 6330 nM.

Question: For `c1ccc(CNc2cc(N[C@@H]3CCNC3)ncn2)cc1` [Example 337, N-Benzyl-N′-[(3R)-pyrrolidin-3-yl]pyrimidine-4,6-diamine], which Ki is on record?
Answer: The Ki was 7220 nM.

Question: How did the Ki turn out when `CC(C)(C)CCNc1cc(N[C@H]2CCN(Cc3ccccc3)C2)nc(N)n1` [Example 338, N^4-[(3S)-1-Benzylpyrrolidin-3-yl]-N6-(3,3-dimethylbutyl)pyrimidine-2,4,6-triamine] was run?
Answer: The Ki was 7930 nM.

Question: For `CNc1nc(NCCC(C)(C)C)cc(N2CCN(C)CC2)n1` [Example 339, N^4-(3,3-Dimethylbutyl)-N^2-methyl-6-(4-methylpiperazin-1-yl)pyrimidine-2,4-diamine], which Ki is on record?
Answer: Its Ki is 9070 nM.

Question: With `c1nc(NC[C@@H]2CCCO2)cc(N[C@@H]2CCNC2)n1` [Example 341, N-[(3R)-Pyrrolidin-3-yl]-N′-[(2S)-tetrahydrofuran-2-ylmethyl]pyrimidine-4,6-diamine] as the compound, how does the Ki read?
Answer: Its Ki is 16300 nM.

same assay, conditions: Method 2 (Ki (nM)), H4 binding, method 2; Ki calculated from IC50 (Cheng-Prussoff)

Question: How did the Ki turn out when `CCNc1cc(N2CCN[C@H](C)C2)nc(N)n1` [Example 97, N^4-Ethyl-6-[(3R)-3-methylpiperazin-1-yl]pyrimidine-2,4-diamine] was run?
Answer: The Ki was 43.7 nM.

Question: `CCNc1cc(N2CCN[C@@H](C)C2)nc(N)n1` [Example 98, N^4-Ethyl-6-[(3S)-3-methylpiperazin-1-yl]pyrimidine-2,4-diamine] was tested. Which Ki did it give?
Answer: Its Ki is 56.2 nM.

Question: How did the Ki turn out when `CC(C)(C)CNc1cc(N2CCN3CCCC3C2)nc(N)n1` (stereo not shown) [Example 141, N^4-(2,2-Dimethylpropyl)-6-(hexahydropyrrolo[1,2-a]pyrazin-2(1H)-yl)pyrimidine-2,4-diamine] was run?
Answer: The Ki was 4.97 nM.

same assay, conditions: at 40 μM

Question: How did the “Method 2, % at 40 μM” value turn out when `CC(C)(C)CCNc1cc(N2CCC(N)CC2)ncn1` [Example 340, 6-(4-Aminopiperidin-1-yl)-N-(3,3-dimethylbutyl)pyrimidin-4-amine] was run?
Answer: Its value is 50% at 40 μM.
